Measurements from patent publication US7118895B2, “Process for producing aglycon by using diglycosidase and flavor-improved food containing the aglycon and converting agent to be used in the process” (Amano Enzyme Inc., priority 2000, dated 2006).

Columns and labels:
[1] = tested on: Diglycosidase derived from P. multicolor; test: Reactivity toward various isoflavone glycosides (HPLC); format: biochemical, Penicillium multicolor; design: glucoside / aglycon: unit not given here; settings: for aglycon / glucoside: 55 °C, pH 4.0
Outline: (§1)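 Aglycone liberation was measured by reversed-phase HPLC (260 nm, calibration-curve quantitation) after ethanol extraction at 0, 1, 3 and 6 h. Reactions ran at 55° C, pH 4.0 (20 mM acetate), with each glycoside (from 2 mM methanol stock) and 0.75 AU/mL enzyme solution.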

[2] = tested on: Crude diglycosidase; test: Examination of substrate concentration in the conversion into isoflavone aglycons by diglycosidase using soybean materials; format: biochemical, Penicillium multicolor IAM7153;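 also: percent of the isoflavone family total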
Outline: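 Reaction at 55° C, shaken, pH 4.0 (20 mM acetate), using crude diglycosidase from a 1.88 AU/mL enzyme solution on soy flour, soymilk, defatted soybean or soy protein concentrate at 2, 5, 10, 20 or 30% (w/v). Isoflavone aglycons quantified by HPLC of ethanol extracts at 0, 1, 3, 6 h.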

[3] = tested on: β-Glucosidase derived from A. niger; test: Reactivity toward various isoflavone glycosides (HPLC); format: biochemical, Aspergillus niger; design: glucoside / aglycon: unit not given here; settings: 55 °C, pH 4.0
Outline: as §1

O=c1c(-c2ccc(O)cc2)coc2cc(O[C@@H]3O[C@H](CO)[C@@H](O)[C@H](O)[C@H]3O)cc(O)c12 [genistin]
aglycon ([1]; Reaction time 0 h): 0 | glucoside ([1]; Reaction time 0 h): 100 | aglycon ([1]; Reaction time 1 h): 0 | glucoside ([1]; Reaction time 1 h): 100 | aglycon ([1]; Reaction time 3 h): 0 | glucoside ([1]; Reaction time 3 h): 100 | aglycon ([1]; Reaction time 6 h): 0 | glucoside ([1]; Reaction time 6 h): 100 | efficiency of decomposing by diglycosidase with combined use of β-glucosidase ([1]; combined use of β-glucosidase in addition to the enzyme): further enhanced | Decomposition efficiency: ratio of each glycoside/aglycon within its isoflavone family ([2]; concentrated soybean protein, substrate concentration 2%, heat treatment of enzyme no, reaction time 0 h): 50.5% | Decomposition efficiency: ratio of each glycoside/aglycon within its isoflavone family ([2]; concentrated soybean protein, substrate concentration 2%, heat treatment of enzyme no, reaction time 1 h): 1.2% | Decomposition efficiency: ratio of each glycoside/aglycon within its isoflavone family ([2]; concentrated soybean protein, substrate concentration 2%, heat treatment of enzyme no, reaction time 3 h): not detected | Decomposition efficiency: ratio of each glycoside/aglycon within its isoflavone family ([2]; concentrated soybean protein, substrate concentration 2%, heat treatment of enzyme no, reaction time 6 h): not detected | Decomposition efficiency: ratio of each glycoside/aglycon within its isoflavone family ([2]; concentrated soybean protein, substrate concentration 2%, heat treatment of enzyme yes, reaction time 6 h): 51.6% | Decomposition efficiency: ratio of each glycoside/aglycon within its isoflavone family ([2]; concentrated soybean protein, substrate concentration 5%, heat treatment of enzyme no, reaction time 0 h): 51.2% | Decomposition efficiency: ratio of each glycoside/aglycon within its isoflavone family ([2]; concentrated soybean protein, substrate concentration 5%, heat treatment of enzyme no, reaction time 1 h): not detected | Decomposition efficiency: ratio of each glycoside/aglycon within its isoflavone family ([2]; concentrated soybean protein, substrate concentration 5%, heat treatment of enzyme no, reaction time 3 h): not detected | Decomposition efficiency: ratio of each glycoside/aglycon within its isoflavone family ([2]; concentrated soybean protein, substrate concentration 5%, heat treatment of enzyme no, reaction time 6 h): not detected | Decomposition efficiency: ratio of each glycoside/aglycon within its isoflavone family ([2]; concentrated soybean protein, substrate concentration 5%, heat treatment of enzyme yes, reaction time 6 h): 52.2% | Decomposition efficiency: ratio of each glycoside/aglycon within its isoflavone family ([2]; concentrated soybean protein, substrate concentration 10%, heat treatment of enzyme no, reaction time 0 h): 50.6% | Decomposition efficiency: ratio of each glycoside/aglycon within its isoflavone family ([2]; concentrated soybean protein, substrate concentration 10%, heat treatment of enzyme no, reaction time 1 h): 1.3% | Decomposition efficiency: ratio of each glycoside/aglycon within its isoflavone family ([2]; concentrated soybean protein, substrate concentration 10%, heat treatment of enzyme no, reaction time 3 h): not detected | Decomposition efficiency: ratio of each glycoside/aglycon within its isoflavone family ([2]; concentrated soybean protein, substrate concentration 10%, heat treatment of enzyme no, reaction time 6 h): not detected | Decomposition efficiency: ratio of each glycoside/aglycon within its isoflavone family ([2]; concentrated soybean protein, substrate concentration 10%, heat treatment of enzyme yes, reaction time 6 h): 50.9% | Decomposition efficiency: ratio of each glycoside/aglycon within its isoflavone family ([2]; concentrated soybean protein, substrate concentration 20%, heat treatment of enzyme no, reaction time 0 h): 50.4% | Decomposition efficiency: ratio of each glycoside/aglycon within its isoflavone family ([2]; concentrated soybean protein, substrate concentration 20%, heat treatment of enzyme no, reaction time 1 h): 6.0% | Decomposition efficiency: ratio of each glycoside/aglycon within its isoflavone family ([2]; concentrated soybean protein, substrate concentration 20%, heat treatment of enzyme no, reaction time 3 h): not detected | Decomposition efficiency: ratio of each glycoside/aglycon within its isoflavone family ([2]; concentrated soybean protein, substrate concentration 20%, heat treatment of enzyme no, reaction time 6 h): not detected | Decomposition efficiency: ratio of each glycoside/aglycon within its isoflavone family ([2]; concentrated soybean protein, substrate concentration 20%, heat treatment of enzyme yes, reaction time 6 h): 50.8% | Decomposition efficiency: ratio of each glycoside/aglycon within its isoflavone family ([2]; concentrated soybean protein, substrate concentration 30%, heat treatment of enzyme no, reaction time 0 h): 54.6% | Decomposition efficiency: ratio of each glycoside/aglycon within its isoflavone family ([2]; concentrated soybean protein, substrate concentration 30%, heat treatment of enzyme no, reaction time 1 h): 2.8% | Decomposition efficiency: ratio of each glycoside/aglycon within its isoflavone family ([2]; concentrated soybean protein, substrate concentration 30%, heat treatment of enzyme no, reaction time 3 h): not detected | Decomposition efficiency: ratio of each glycoside/aglycon within its isoflavone family ([2]; concentrated soybean protein, substrate concentration 30%, heat treatment of enzyme no, reaction time 6 h): not detected | Decomposition efficiency: ratio of each glycoside/aglycon within its isoflavone family ([2]; concentrated soybean protein, substrate concentration 30%, heat treatment of enzyme yes, reaction time 6 h): 55.6% | Decomposition efficiency: ratio of each glycoside/aglycon within its isoflavone family ([2]; roasted soy flour, substrate concentration 2%, heat treatment of enzyme no, reaction time 0 h): 33.2% | Decomposition efficiency: ratio of each glycoside/aglycon within its isoflavone family ([2]; roasted soy flour, substrate concentration 2%, heat treatment of enzyme no, reaction time 1 h): not detected | Decomposition efficiency: ratio of each glycoside/aglycon within its isoflavone family ([2]; roasted soy flour, substrate concentration 2%, heat treatment of enzyme no, reaction time 3 h): not detected | Decomposition efficiency: ratio of each glycoside/aglycon within its isoflavone family ([2]; roasted soy flour, substrate concentration 2%, heat treatment of enzyme no, reaction time 6 h): not detected | Decomposition efficiency: ratio of each glycoside/aglycon within its isoflavone family ([2]; roasted soy flour, substrate concentration 2%, heat treatment of enzyme yes, reaction time 6 h): 48.4% | Decomposition efficiency: ratio of each glycoside/aglycon within its isoflavone family ([2]; roasted soy flour, substrate concentration 5%, heat treatment of enzyme no, reaction time 0 h): 47.8% | Decomposition efficiency: ratio of each glycoside/aglycon within its isoflavone family ([2]; roasted soy flour, substrate concentration 5%, heat treatment of enzyme no, reaction time 1 h): not detected | Decomposition efficiency: ratio of each glycoside/aglycon within its isoflavone family ([2]; roasted soy flour, substrate concentration 5%, heat treatment of enzyme no, reaction time 3 h): not detected | Decomposition efficiency: ratio of each glycoside/aglycon within its isoflavone family ([2]; roasted soy flour, substrate concentration 5%, heat treatment of enzyme no, reaction time 6 h): not detected | Decomposition efficiency: ratio of each glycoside/aglycon within its isoflavone family ([2]; roasted soy flour, substrate concentration 5%, heat treatment of enzyme yes, reaction time 6 h): 47.8% | Decomposition efficiency: ratio of each glycoside/aglycon within its isoflavone family ([2]; roasted soy flour, substrate concentration 10%, heat treatment of enzyme no, reaction time 0 h): 59.5% | Decomposition efficiency: ratio of each glycoside/aglycon within its isoflavone family ([2]; roasted soy flour, substrate concentration 10%, heat treatment of enzyme no, reaction time 1 h): not detected | Decomposition efficiency: ratio of each glycoside/aglycon within its isoflavone family ([2]; roasted soy flour, substrate concentration 10%, heat treatment of enzyme no, reaction time 3 h): not detected | Decomposition efficiency: ratio of each glycoside/aglycon within its isoflavone family ([2]; roasted soy flour, substrate concentration 10%, heat treatment of enzyme no, reaction time 6 h): not detected | Decomposition efficiency: ratio of each glycoside/aglycon within its isoflavone family ([2]; roasted soy flour, substrate concentration 10%, heat treatment of enzyme yes, reaction time 6 h): 49.5% | Decomposition efficiency: ratio of each glycoside/aglycon within its isoflavone family ([2]; roasted soy flour, substrate concentration 20%, heat treatment of enzyme no, reaction time 0 h): 50.5% | Decomposition efficiency: ratio of each glycoside/aglycon within its isoflavone family ([2]; roasted soy flour, substrate concentration 20%, heat treatment of enzyme no, reaction time 1 h): not detected | Decomposition efficiency: ratio of each glycoside/aglycon within its isoflavone family ([2]; roasted soy flour, substrate concentration 20%, heat treatment of enzyme no, reaction time 3 h): not detected | Decomposition efficiency: ratio of each glycoside/aglycon within its isoflavone family ([2]; roasted soy flour, substrate concentration 20%, heat treatment of enzyme no, reaction time 6 h): not detected | Decomposition efficiency: ratio of each glycoside/aglycon within its isoflavone family ([2]; roasted soy flour, substrate concentration 20%, heat treatment of enzyme yes, reaction time 6 h): 49.5% | Decomposition efficiency: ratio of each glycoside/aglycon within its isoflavone family ([2]; roasted soy flour, substrate concentration 30%, heat treatment of enzyme no, reaction time 0 h): 49.4% | Decomposition efficiency: ratio of each glycoside/aglycon within its isoflavone family ([2]; roasted soy flour, substrate concentration 30%, heat treatment of enzyme no, reaction time 1 h): 5.7% | Decomposition efficiency: ratio of each glycoside/aglycon within its isoflavone family ([2]; roasted soy flour, substrate concentration 30%, heat treatment of enzyme no, reaction time 3 h): 9.6% | Decomposition efficiency: ratio of each glycoside/aglycon within its isoflavone family ([2]; roasted soy flour, substrate concentration 30%, heat treatment of enzyme no, reaction time 6 h): 2.0% | Decomposition efficiency: ratio of each glycoside/aglycon within its isoflavone family ([2]; roasted soy flour, substrate concentration 30%, heat treatment of enzyme yes, reaction time 6 h): 50.1% | Decomposition efficiency: ratio of each glycoside/aglycon within its isoflavone family ([2]; soymilk, substrate concentration 2%, heat treatment of enzyme no, reaction time 0 h): 54.5% | Decomposition efficiency: ratio of each glycoside/aglycon within its isoflavone family ([2]; soymilk, substrate concentration 2%, heat treatment of enzyme no, reaction time 1 h): not detected | Decomposition efficiency: ratio of each glycoside/aglycon within its isoflavone family ([2]; soymilk, substrate concentration 2%, heat treatment of enzyme no, reaction time 3 h): not detected | Decomposition efficiency: ratio of each glycoside/aglycon within its isoflavone family ([2]; soymilk, substrate concentration 2%, heat treatment of enzyme no, reaction time 6 h): not detected | Decomposition efficiency: ratio of each glycoside/aglycon within its isoflavone family ([2]; soymilk, substrate concentration 2%, heat treatment of enzyme yes, reaction time 6 h): 38.0% | Decomposition efficiency: ratio of each glycoside/aglycon within its isoflavone family ([2]; soymilk, substrate concentration 5%, heat treatment of enzyme no, reaction time 0 h): 31.5% | Decomposition efficiency: ratio of each glycoside/aglycon within its isoflavone family ([2]; soymilk, substrate concentration 5%, heat treatment of enzyme no, reaction time 1 h): not detected | Decomposition efficiency: ratio of each glycoside/aglycon within its isoflavone family ([2]; soymilk, substrate concentration 5%, heat treatment of enzyme no, reaction time 3 h): not detected | Decomposition efficiency: ratio of each glycoside/aglycon within its isoflavone family ([2]; soymilk, substrate concentration 5%, heat treatment of enzyme no, reaction time 6 h): not detected | Decomposition efficiency: ratio of each glycoside/aglycon within its isoflavone family ([2]; soymilk, substrate concentration 5%, heat treatment of enzyme yes, reaction time 6 h): 37.9% | Decomposition efficiency: ratio of each glycoside/aglycon within its isoflavone family ([2]; soymilk, substrate concentration 10%, heat treatment of enzyme no, reaction time 0 h): 32.9% | Decomposition efficiency: ratio of each glycoside/aglycon within its isoflavone family ([2]; soymilk, substrate concentration 10%, heat treatment of enzyme no, reaction time 1 h): not detected | Decomposition efficiency: ratio of each glycoside/aglycon within its isoflavone family ([2]; soymilk, substrate concentration 10%, heat treatment of enzyme no, reaction time 3 h): not detected | Decomposition efficiency: ratio of each glycoside/aglycon within its isoflavone family ([2]; soymilk, substrate concentration 10%, heat treatment of enzyme no, reaction time 6 h): not detected | Decomposition efficiency: ratio of each glycoside/aglycon within its isoflavone family ([2]; soymilk, substrate concentration 10%, heat treatment of enzyme yes, reaction time 6 h): 37.6% | Decomposition efficiency: ratio of each glycoside/aglycon within its isoflavone family ([2]; soymilk, substrate concentration 20%, heat treatment of enzyme no, reaction time 0 h): 33.3% | Decomposition efficiency: ratio of each glycoside/aglycon within its isoflavone family ([2]; soymilk, substrate concentration 20%, heat treatment of enzyme no, reaction time 1 h): not detected | Decomposition efficiency: ratio of each glycoside/aglycon within its isoflavone family ([2]; soymilk, substrate concentration 20%, heat treatment of enzyme no, reaction time 3 h): not detected | Decomposition efficiency: ratio of each glycoside/aglycon within its isoflavone family ([2]; soymilk, substrate concentration 20%, heat treatment of enzyme no, reaction time 6 h): not detected | Decomposition efficiency: ratio of each glycoside/aglycon within its isoflavone family ([2]; soymilk, substrate concentration 20%, heat treatment of enzyme yes, reaction time 6 h): 38.6% | Decomposition efficiency: ratio of each glycoside/aglycon within its isoflavone family ([2]; soymilk, substrate concentration 30%, heat treatment of enzyme no, reaction time 0 h): 33.6% | Decomposition efficiency: ratio of each glycoside/aglycon within its isoflavone family ([2]; soymilk, substrate concentration 30%, heat treatment of enzyme no, reaction time 1 h): not detected | Decomposition efficiency: ratio of each glycoside/aglycon within its isoflavone family ([2]; soymilk, substrate concentration 30%, heat treatment of enzyme no, reaction time 3 h): not detected | Decomposition efficiency: ratio of each glycoside/aglycon within its isoflavone family ([2]; soymilk, substrate concentration 30%, heat treatment of enzyme no, reaction time 6 h): not detected | Decomposition efficiency: ratio of each glycoside/aglycon within its isoflavone family ([2]; soymilk, substrate concentration 30%, heat treatment of enzyme yes, reaction time 6 h): 38.6% | reactivity of β-glucosidase derived from Aspergillus niger (in words) [3]: act well | aglycon ([3]; Reaction time 0 h): 0 | glucoside ([3]; Reaction time 0 h): 100 | aglycon ([3]; Reaction time 1 h): 100 | glucoside ([3]; Reaction time 1 h): 0 | aglycon ([3]; Reaction time 3 h): 100 | glucoside ([3]; Reaction time 3 h): 0 | aglycon ([3]; Reaction time 6 h): 100 | glucoside ([3]; Reaction time 6 h): 0
